Measurements: US4092420A, “Novel soft N-chloroamino alcohol derivatives exhibiting antibacterial activity” (INTERx Research Corporation, priority 1977, dated 1978)

Tested on: S. aureus
Experiment: Contact germicidal efficiency (sterilization time)
Assay type: cell-based, Staphylococcus aureus
Settings: Example Y, pH 4.6, in presence of horse serum, 468 ppm (80 PPMCl+)
Method: CONTACT GERMICIDAL EFFICIENCY OF
^a Time intervals screened 0.5, 1, 2, 3, 4 and 5 minutes.
^a Time intervals screened 0.5, 1, 2, 3, 4, 5, 6, 7, 8, 9 and 10
^a Time intervals screened 0.5, 1, 2, 3, 4, and 5 minutes.
^b Time intervals screened 0.5, 1, 2, 3, 4, 5, 6, 7, 8, 9 and 10
Immediately preceding the screen, the compound is weighed and diluted with a buffer or other solvent to give the final concentration desired. The buffer or solvent chosen depends on the conditions of the screen and could be one of the following: 0.1 M NaOAc, pH 4.6; 0.1 M NaH2 PO4, pH 7.0; 0.1 M Na2 B4 O7, pH 8.8; 35% methanol in one of the aforementioned buffers; 10% Triton × 100 in buffer, etc.
The positive chlorine concentration of the test solution is then determined iodometrically.
Media used for the Screen are Nutrient Broth, BBL# 11479 and Nutrient Agar, BBL# 11472 prepared according to label directions. The broth is dispensed in 75 ml amounts of flasks for overnight cultures and in 5 ml amounts to culture tubes for subculturing during the Screen. Agar plates are prepared as usual. […]
A 0.2 ml portion of the overnight culture is inoculated into 5 ml of 0.9% NaCl for use in controls. […] The earliest subculture time at which no growth is present in the subculture tube is considered the endpoint and is recorded as that time, e.g., 7 minutes. […]

**Q.** With CC(C)(COC(=O)C(C)(C)C)NCl [IV c, 2-N-Chloroamino-2-methyl-1-propyl 2,2-dimethylproprionate] as the compound, how does the “Sterilization Time” value read?
**A.** > 10 min
